Literature values in paper PMC8915598.

Experiment: not told

| Compound | log partition octanol / water [log10] |
| --- | --- |
| NC(=O)c1ccc(N)cc1 | -0.41 |
| CC(=O)Nc1ccc(Cl)cc1 | 2.12 |
